Data published in patent US8354387B2, “Methods and compositions for delivering siRNA into mammalian cells” (Centre National de la Recherche Scientifique, priority 2004, dated 2013).

System: human fibroblasts (Hs68)
Assay: pRL-SV40 plasmid transfection of synchronized or arrested cells (luciferase activity)
Format: cell-based
Conditions: for luciferase activity in serum-starved, arrested cells in comparison with dividing cells: 24 hrs after transfection; for transfection efficiency after 24 hrs, relative to expression after 48 hrs: synchronized Hs68, pRL-SV40, 24 hrs
Method: FIG. 2: The NLS of MPG is essential for nuclear translocation: A/ Purified GST-importin α and β were coupled onto GST Sepharose resin and incubated in batch with MPG/DNA or MPG^ΔNLS/DNA complexes for 1 hr, extensively washed and incubated with […] glutathione to elute the complexes. DNA was then extracted and analyzed by agarose gel electrophoresis (0.8%). […] B/ Delivery of pRL-SV40 plasmid: MPG/DNA (black boxes) or MPG^ΔNLS/DNA (grey boxes) complexes formed at a charge ratio of 5/1 with 100 ng pRL-SV40 plasmid encoding the reporter gene luciferase were overlaid onto synchronized or arrested (-FCS) human fibroblasts (Hs68). Luciferase activity was monitored 12 hrs and 24 hrs after release from synchrony, or after 24 hrs for arrested cells and 48 hrs for asynchronous cells. Control transfections were performed with Lipofectamine™ (white boxes) or naked plasmid (dashed boxes).
Hs68, Cos-7 and HeLa cell lines were cultured in Dulbecco's Modified Eagle's Medium supplemented with 2 mM glutamine, 1% antibiotics (streptomycin 10 000 μg/ml, penicillin, 10,000 IU/ml) and 10% (w/v) fetal calf serum (FCS) at 37° C. in a humidified atmosphere containing 5% CO2 as described previously (18). For MPG or MPG^ΔNLS-mediated gene delivery, peptide carrier/DNA complexes were formed in DMEM or PBS (500 μl of DMEM containing 100 ng of DNA complexed with MPG at a charge ratio 5:1) and incubated for 30 min at 37° C. Cells grown to 60% confluence were then overlaid with these preformed complexes. After 30 min incubation at 37° C., 1 ml of fresh DMEM supplemented with 10% fetal calf serum was added to the cells, without removing the overlay of carrier/DNA, and cells were returned to the incubator.
For cell cycle-dependent studies, Hs68 fibroblasts were synchronized by serum deprivation for 40 hrs, then restimulated to enter the cycle and grow into early G1 for 4 hrs by addition of fresh DMEM supplemented with 20% FCS, and incubated in the presence of MPG/DNA complexes as described above. Luciferase activity was monitored as described previously (19) and control transfection experiments were performed using Lipofectamine™. When transfected at 4° C., cells were incubated for 1 hour at 4° C. prior to transfection, then incubated with MPG/DNA complexes for another 2 hours at 4° C., extensively washed and finally returned to incubation at 37° C. in fresh medium supplemented with serum. When transfections were performed in the presence of bafilomycin A ([…]), cytochalasin B (50 μg/ml) or chloroquine (100 μM), cells were preincubated with these inhibitors of endocytosis for 1 hour prior to transfection.
In order to study the impact of the NLS of MPG on nuclear translocation of plasmids, transfection experiments were performed on synchronized or growth-arrested cells with either MPG or its NLS mutant. Cells were synchronized in G0 by serum starvation then released back into the cell cycle by addition of serum. 4 hours after release, cells were transfected with MPG/DNA or MPG^ΔNLS/DNA complexes and transgene expression was monitored 12 hours later, when most of the cells were in late G1, and […] later, in late G2 prior to mitosis. Data were normalized with luciferase activity obtained 48 hours after transfection, and compared with asynchronous cells. […] After 24 hrs, transfection efficiency reached 70%. In contrast, when transfection was performed with MPG^ΔNLS (SEQ ID NO:3), luciferase activity was negligible after 12 hrs (7%), and only reached 26% after 24 hrs. […]

GALFLGFLGAAGSTMGAWSQPKSKRKV (carrier peptide) [MPG^ΔNLS, MPG variant with single mutation of the second lysine residue in the NLS motif to serine]
luciferase activity in serum-starved, arrested cells in comparison with dividing cells: no transfection was observed | luciferase expression after 12 hrs, relative to expression after 48 hrs (synchronized Hs68, pRL-SV40, 12 hrs): 7% | transfection efficiency after 24 hrs, relative to expression after 48 hrs: 26%

GALFLGFLGAAGSTMGAWSQPKKKRKV (carrier peptide) [MPG, bipartite amphipathic peptide derived from fusion peptide domain of HIV-1 gp41 and NLS of SV40 large T antigen]
luciferase activity in serum-starved, arrested cells in comparison with dividing cells: 50% | transfection efficiency after 24 hrs, relative to expression after 48 hrs: 70%
